# Measurements as given in US20110070174A1, “Benzoyl Peroxide and Sunscreen Agent Combination” (PruGen IP Holdings, Inc., priority 2009, published 2011).
# Legend:
# Format in all cases: physicochemical
# [1] = Stability Study 2: BPO/sunscreen mixture, one month at room temperature; conditions: for 1 MONTH-RT (content) / 1 MONTH-RT (percent of initial, in brackets): Study 2, 1 month room temperature; for % INITIAL (percent of initial, in brackets) / % INITIAL (content): Study 2, initial; for % INITIAL (content): in BPO/sunscreen mixture
# Source text: (§1) The stability provided by using the above formula and mixing process has heretofore been unmatched.
# [2] = Stability Study 3: BPO/sunscreen mixture, one month at room temperature; conditions: for 1 MONTH-RT (content) / 1 MONTH-RT (percent of initial, in brackets): Study 3, 1 month room temperature; for % INITIAL (percent of initial, in brackets) / % INITIAL (content): Study 3, initial; for % INITIAL (content): in BPO/sunscreen mixture
# Source text: as §1
# [3] = Stability Study 1: BPO/sunscreen mixture, one month at room temperature; conditions: for 1 MONTH-RT (content) / 1 MONTH-RT (percent of initial, in brackets): Study 1, 1 month room temperature; for % INITIAL (percent of initial, in brackets) / % INITIAL (content): Study 1, initial; for % INITIAL (content): in BPO/sunscreen mixture
# Source text: as §1
# [4] = Stability Study 4: BPO/sunscreen mixture, one month at room temperature; conditions: for 1 MONTH-RT (content) / 1 MONTH-RT (percent of initial, in brackets): Study 4, 1 month room temperature; for % INITIAL (percent of initial, in brackets) / % INITIAL (content): Study 4, initial; for % INITIAL (content): in BPO/sunscreen mixture
# Source text: as §1
# [5] = Stability of sunscreen base and benzoyl peroxide each before mixing; conditions: each agent separately, one-month repeatable studies
# Source text: as §1
# [6] = Multiple one-month room temperature studies after mixing the agents together; conditions: BPO at various percentages
# Source text: as §1
SMILES,1 MONTH-RT (content) [1],"1 MONTH-RT (percent of initial, in brackets) [1]","% INITIAL (percent of initial, in brackets) [1]",% INITIAL (content) [1],1 MONTH-RT (content) [2],"1 MONTH-RT (percent of initial, in brackets) [2]","% INITIAL (percent of initial, in brackets) [2]",% INITIAL (content) [2],1 MONTH-RT (content) [3],"1 MONTH-RT (percent of initial, in brackets) [3]","% INITIAL (percent of initial, in brackets) [3]",% INITIAL (content) [3],1 MONTH-RT (content) [4],"1 MONTH-RT (percent of initial, in brackets) [4]","% INITIAL (percent of initial, in brackets) [4]",% INITIAL (content) [4],stability of each agent [5],potency after mixing [6]
COc1ccc(C(=O)CC(=O)c2ccc(C(C)(C)C)cc2)cc1 [Avobenzone],2.78%,86%,100%,3.23%,2.69%,91.5%,100%,2.94%,–,–,–,–,–,–,–,–,–,–
"O=C(OOC(=O)c1ccccc1)c1ccccc1 [BPO, Benzoyl peroxide]",8.07%,94%,100%,8.55%,6.48%,107%,100%,6.02%,7.76%,108%,100%,7.16%,7.76%,108%,100%,7.16%,stable for at least one year,remained at full potency
CCCCC(CC)COC(=O)C(C#N)=C(c1ccccc1)c1ccccc1 (stereo not shown) [Octocrylene],–,–,–,–,–,–,–,–,6.42%,101%,100%,6.33%,6.42%,101%,100%,6.33%,–,–
